In PubChem BioAssay AID330 (DTP/NCI, 2004):
“And” between values parts separate entries of the source, which are not always exact repeats. Equal values may be shown once. Toxic doses and inconclusive results are not listed. The calls were made as follows: active = survival T/C of 150% or more; inactive = T/C below 125% in these data.

Tested on: P388 leukemia ip, CD2F1 mice, survival T/C
Test: NCI In Vivo Anticancer Drug Screen. Data for tumor model P388 Leukemia (intraperitoneal) in CD2F1 (CDF1) mice
Details: endpoint: median survival time, higher = longer survival
Procedure, shortened: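 Mice carrying the transplanted tumor received test compound or vehicle. Survival was recorded in each group, and the value is the treated-group measurement divided by that of the vehicle-treated control group.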

[1] = dose: 50.0 mg/kg/injection, schedule: Q01DX009 (ip), vehicle: saline
[2] = dose: 100.0 mg/kg/injection, schedule: Q01DX009 (ip), vehicle: saline
[3] = dose: 200.0 mg/kg/injection, schedule: Q01DX009 (ip), vehicle: saline
[4] = dose: 25.0 mg/kg/injection, schedule: Q01DX009 (ip), vehicle: saline with Tween-80
[5] = dose: 50.0 mg/kg/injection, schedule: Q01DX009 (ip), vehicle: saline with Tween-80
[6] = dose: 100.0 mg/kg/injection, schedule: Q01DX009 (ip), vehicle: saline with Tween-80
[7] = dose: 100.0 mg/kg/injection, schedule: Q04DX002 (ip), vehicle: saline with Tween-80
[8] = dose: 200.0 mg/kg/injection, schedule: Q04DX002 (ip), vehicle: saline with Tween-80
[9] = dose: 400.0 mg/kg/injection, schedule: Q04DX002 (ip), vehicle: saline with Tween-80
[10] = dose: 50.0 mg/kg/injection, schedule: Q01DX005 (ip), vehicle: saline with Tween-80
[11] = dose: 100.0 mg/kg/injection, schedule: Q01DX005 (ip), vehicle: saline with Tween-80
[12] = dose: 200.0 mg/kg/injection, schedule: Q01DX005 (ip), vehicle: saline with Tween-80

Measured: T/C

COC(=O)c1onc2ccc(Cl)cc12
inactive: dose: 18.75 mg/kg/injection, schedule: Q01DX005 (ip), vehicle: Klucel (hydroxypropylcellulose) (HPC) 99 % of control | dose: 37.5 mg/kg/injection, schedule: Q01DX005 (ip), vehicle: Klucel (hydroxypropylcellulose) (HPC) 92 % of control | dose: 75.0 mg/kg/injection, schedule: Q01DX005 (ip), vehicle: Klucel (hydroxypropylcellulose) (HPC) 93 % of control | dose: 150.0 mg/kg/injection, schedule: Q01DX005 (ip), vehicle: Klucel (hydroxypropylcellulose) (HPC) 95 % of control

Cc1cc[n+]([O-])cc1
inactive: [1] 105 % of control | [2] 106 % of control | [3] 97 % of control

O=C1OC(c2ccccc2)=N/C1=C\c1ccccc1
inactive: [4] 95 % of control | [5] 100 % of control | [6] 100 % of control | dose: 200.0 mg/kg/injection, schedule: Q01DX009 (ip), vehicle: saline with Tween-80 95 % of control

Cc1cc(N)nc(=O)n1COCCOCc1ccccc1
inactive: dose: 100.0 mg/kg/injection, schedule: Q04DX002 (ip), vehicle: Klucel (hydroxypropylcellulose) (HPC) 103 % of control | dose: 200.0 mg/kg/injection, schedule: Q04DX002 (ip), vehicle: Klucel (hydroxypropylcellulose) (HPC) 106 % of control | dose: 400.0 mg/kg/injection, schedule: Q04DX002 (ip), vehicle: Klucel (hydroxypropylcellulose) (HPC) 98 % of control

C=C(Br)C(=O)N1CCCC1C(=O)NC (stereo unspecified)
inactive: dose: 25.0 mg/kg/injection, schedule: Q01DX009 (ip), vehicle: saline 110 % of control | [1] 91 % of control | [2] 98 % of control

Nc1nnc(Cc2ccc(Br)cc2)o1
inactive: dose: 60.0 mg/kg/injection, schedule: Q01DX005 (ip), vehicle: saline with Tween-80 98 % of control | dose: 120.0 mg/kg/injection, schedule: Q01DX005 (ip), vehicle: saline with Tween-80 97 % of control | dose: 240.0 mg/kg/injection, schedule: Q01DX005 (ip), vehicle: saline with Tween-80 100 % of control

CCCCCCCOC(=O)c1ccc(O)cc1
inactive: dose: 12.5 mg/kg/injection, schedule: Q01DX009 (ip), vehicle: saline with Tween-80 105 % of control | [4] 100 % of control | [5] 99 % of control and 96 % of control | [6] 95 % of control

C=CCC(C(C)=O)C(=O)OC(C)(C)C (stereo unspecified)
inactive: dose: 50.0 mg/kg/injection, schedule: Q01DX005 (ip), vehicle: saline 101 % of control | dose: 100.0 mg/kg/injection, schedule: Q01DX005 (ip), vehicle: saline 104 % of control | dose: 200.0 mg/kg/injection, schedule: Q01DX005 (ip), vehicle: saline 111 % of control

O=C(NNc1c(F)c(F)c(C(F)(F)F)c(F)c1F)c1ccccc1
inactive: dose: 50.0 mg/kg/injection, schedule: Q01DX005 (ip), vehicle: Klucel (hydroxypropylcellulose) (HPC) 98 % of control | dose: 100.0 mg/kg/injection, schedule: Q01DX005 (ip), vehicle: Klucel (hydroxypropylcellulose) (HPC) 100 % of control | dose: 200.0 mg/kg/injection, schedule: Q01DX005 (ip), vehicle: Klucel (hydroxypropylcellulose) (HPC) 91 % of control

CC1COCCOC(=O)c2cccc(n2)C(=O)OCCOCC(C)O1 (stereo unspecified)
inactive: dose: 100.0 mg/kg/injection, schedule: Q04DX003 (ip), vehicle: Klucel (hydroxypropylcellulose) (HPC) 102 % of control | dose: 200.0 mg/kg/injection, schedule: Q04DX003 (ip), vehicle: Klucel (hydroxypropylcellulose) (HPC) 95 % of control | dose: 400.0 mg/kg/injection, schedule: Q04DX003 (ip), vehicle: Klucel (hydroxypropylcellulose) (HPC) 102 % of control

O=C(CCl)NC(Cc1cccs1)C(=O)O (stereo unspecified)
inactive: [1] 98 % of control | [2] 93 % of control | [3] 96 % of control

Cc1ccc(S(=O)/C=C/c2ccccc2)cc1 (stereo unspecified)
inactive: dose: 50.0 mg/kg/injection, schedule: Q01DX009 (ip), vehicle: other 103 % of control | dose: 100.0 mg/kg/injection, schedule: Q01DX009 (ip), vehicle: other 97 % of control | dose: 200.0 mg/kg/injection, schedule: Q01DX009 (ip), vehicle: other 101 % of control

Nc1cccnc1N
inactive: dose: 2.5 mg/kg/injection, schedule: Q01DX009 (ip), vehicle: saline 98 % of control | dose: 3.12 mg/kg/injection, schedule: Q01DX009 (ip), vehicle: saline 106 % of control | dose: 5.0 mg/kg/injection, schedule: Q01DX009 (ip), vehicle: saline 98 % of control | dose: 6.25 mg/kg/injection, schedule: Q01DX009 (ip), vehicle: saline 106 % of control | dose: 10.0 mg/kg/injection, schedule: Q01DX009 (ip), vehicle: saline 105 % of control | dose: 12.5 mg/kg/injection, schedule: Q01DX009 (ip), vehicle: saline 92 % of control and 93 % of control | dose: 20.0 mg/kg/injection, schedule: Q01DX009 (ip), vehicle: saline 101 % of control

COc1cc(-c2nc(=S)[nH][nH]2)cc(OC)c1OC
inactive: dose: 100.0 mg/kg/injection, schedule: Q01DX001 (ip), vehicle: saline with Tween-80 89 % of control | dose: 200.0 mg/kg/injection, schedule: Q01DX001 (ip), vehicle: saline with Tween-80 89 % of control | dose: 400.0 mg/kg/injection, schedule: Q01DX001 (ip), vehicle: saline with Tween-80 96 % of control

Nc1ncnc2c1ncn2C1OC(CO)C(N)C1O (stereo unspecified)
inactive: [7] 102 % of control | [8] 102 % of control | [9] 105 % of control

COC(=O)/C=C(\NC1CC(OC2C[C@](O)(C(C)=O)Cc3c(O)c4c(c(O)c32)C(=O)c2c(OC)cccc2C4=O)OC(C)C1O)C(=O)OC (stereo partly specified)
inactive: dose: 6.25 mg/kg/injection, schedule: Q04DX003 (ip), vehicle: saline with Tween-80 104 % of control | dose: 12.5 mg/kg/injection, schedule: Q04DX003 (ip), vehicle: saline with Tween-80 105 % of control and 115 % of control | dose: 25.0 mg/kg/injection, schedule: Q04DX003 (ip), vehicle: saline with Tween-80 121 % of control | dose: 100.0 mg/kg/injection, schedule: Q04DX003 (ip), vehicle: saline with Tween-80 121 % of control

C1=Nc2ccccc2/C1=C/c1c[nH]c2ccccc12
inactive: dose: 25.0 mg/kg/injection, schedule: Q01DX005 (ip), vehicle: saline with Tween-80 110 % of control | [10] 100 % of control and 103 % of control and 104 % of control | [11] 101 % of control and 103 % of control and 104 % of control | [12] 104 % of control and 118 % of control and 122 % of control | dose: 400.0 mg/kg/injection, schedule: Q01DX005 (ip), vehicle: saline with Tween-80 104 % of control

COc1ccc(C(C)c2cc3c(cc2OCCOC(C)=O)OCO3)cc1 (stereo unspecified)
inactive: [7] 103 % of control | [8] 100 % of control | [9] 100 % of control

NC(C(=O)O)C(C(F)(F)F)C(F)(F)F (stereo unspecified)
inactive: [1] 101 % of control | [2] 102 % of control | [3] 114 % of control

CCOC=C=CCOCC
inactive: dose: 60.0 mg/kg/injection, schedule: Q01DX005 (ip), vehicle: saline 100 % of control | dose: 120.0 mg/kg/injection, schedule: Q01DX005 (ip), vehicle: saline 96 % of control | dose: 240.0 mg/kg/injection, schedule: Q01DX005 (ip), vehicle: saline 96 % of control

CCC[CH2][Sn]([CH2]CCC)([CH2]CCC)[S]C12CC3CC(CC(C3)C1)C2
inactive: dose: 100.0 mg/kg/injection, schedule: Q04DX003 (ip), vehicle: saline 112 % of control | dose: 200.0 mg/kg/injection, schedule: Q04DX003 (ip), vehicle: saline 102 % of control | dose: 400.0 mg/kg/injection, schedule: Q04DX003 (ip), vehicle: saline 106 % of control

C#CC(OS(=O)(=O)C(F)(F)F)=C(C)C
inactive: [10] 99 % of control | [11] 100 % of control | [12] 100 % of control
